Where a name gives a salt, the structure may show the parent alone. Read-outs that look alike come from different tables or passages of the source.
Assays:
[1] = central and tissue distribution volume in Macaco (parenteral, HPLC); type: in vivo; details: monkey, blood, 20 mg/kg, 20 mg/kg parenteral, sodium salt
Procedure: 20 mg/kg of the compound obtained in Example 1 was administered parenterally to Macaco and a central distribution volume and a tissue distribution volume were calculated by their concentrations in blood measured with time.
The concentration of the compound was measured according to HPLC method. Microbondapack C18 (trade name, produced by Waters Co.) was used as a column and 8% acetonitrile-2% tetrahydrofuran-0.2% phosphoric acid was used as a solvent.

[2] = tested on: C. freundii 1R523; test: MIC; details: Citrobacter freundii, 1R523
[3] = tested on: A. xylosoxidans OF1001; test: MIC; type: cell-based; details: Achromobacter xylosoxidans, Table 2, sodium salt
Procedure: (§1) The minimum inhibition concentrations (MIC) of the compounds obtained in Example 1 and Example 2 were measured according to the standard method of Japanese Chemotherapy Association.

[4] = tested on: E. coli NIHJ JC-2; test: MIC; type: cell-based; details: Escherichia coli, NIHJJC2, Table 2, sodium salt
Procedure: as §1

[5] = tested on: A. calcoaceticu OF1063; test: MIC; type: cell-based; details: Table 2, sodium salt
Procedure: as §1

[6] = tested on: E. cloacae 5D63-2; test: MIC; details: Enterobacter cloacae, 5D632
[7] = tested on: C. freundii GN7391; test: MIC; details: Citrobacter freundii, GN7391, C. freundii GN7391
[8] = tested on: E. cloacae 5D52-2; test: MIC; details: Enterobacter cloacae, 5D522
[9] = tested on: P. aeruginosa 5D58-1; test: MIC; details: Pseudomonas aeruginosa, 5D581, P. aeruginosa 5D58-1; Table 2, sodium salt
[10] = tested on: C. freundii 1R526; test: MIC; details: Citrobacter freundii, 1R526
[11] = tested on: E. coli ML4707; test: MIC; details: Escherichia coli, ML4707, E. coli ML4707; Table 2, sodium salt
[12] = tested on: S. aureus Smith; test: MIC; details: Staphylococcus aureus, Table 2, sodium salt
[13] = tested on: P. vulgaris GN7919; test: MIC; details: Proteus vulgaris, GN7919
[14] = tested on: P. aeruginosa GN10362; test: MIC; details: Pseudomonas aeruginosa, GN10362
[15] = tested on: K. pneumoniae 4at521; test: MIC; details: Klebsiella pneumoniae, 4AT521
[16] = tested on: E. colacae GN7471; test: MIC; details: Table 2, sodium salt
[17] = tested on: P. aeruginosa 4au542; test: MIC; details: Pseudomonas aeruginosa, 4AU542, P. aeruginosa 4au542; Table 2, sodium salt
[18] = tested on: S. marcescens GN10857; test: MIC; details: Serratia marcescens, GN10857, S. marcescens GN10857; Table 2, sodium salt
[19] = tested on: E. cloacae 1Y247; test: MIC; type: cell-based; details: Enterobacter cloacae, Table 3, sodium salt, read-out: MIC
Procedure: The minimum inhibition concentrations (MIC) of the compounds obtained in the respective examples described above were measured according to the standard method of Japanese Chemotherapy Association.

[20] = tested on: E. coli GN5482; test: MIC; details: Escherichia coli, GN5482, E. coli GN5482; Table 2, sodium salt
[21] = tested on: C. freundii 1U589; test: MIC; details: Citrobacter freundii, 1U589
[22] = tested on: E. cloacae 1V25; test: MIC; details: Enterobacter cloacae
[23] = tested on: C. freundii 1U692; test: MIC; details: Citrobacter freundii, 1U692
[24] = tested on: P. maltophilia OF247; test: MIC; details: Stenotrophomonas maltophilia, Table 2, sodium salt
[25] = tested on: P. cepacia OF189; test: MIC; details: Burkholderia cepacia, OF189, P. cepacia OF189; Table 2, sodium salt
[26] = tested on: C. freundii 1R527; test: MIC; details: Citrobacter freundii, 1R527
[27] = tested on: E. cloacae 908RN; test: MIC; details: Enterobacter cloacae
[28] = tested on: C. freundii 1R524; test: MIC; details: Citrobacter freundii, 1R524
[29] = tested on: C. freundii 5D60-1; test: MIC; details: Citrobacter freundii, 5D601

CC(C)(ON=C(C(=O)NC1C(=O)N2C(C(=O)O)=C(COC(N)=O)CSC12)c1csc(N)n1)C(=O)NNC(=O)c1ccc(O)c(O)c1 (centres unmarked) [Example 1, 7-{2-[2-amino-1,3-thiazol-4-yl]-2-[1-(3-(3,4-dihydroxybenzoyl)carbazoyl)-1-methylethoxyimino]acetamide}-3-carbamoyloxymethyl-3-cephem-4-carboxylic acid.hydrochloride]
Vd ([1]; read-out: Central distribution volume): 0.144 L/kg | Vd ([1]; read-out: Tissue distribution volume): 0.295 L/kg | MIC [2]: 25 µg/mL | MIC [3]: 1.56 µg/mL | MIC [4]: 0.1 µg/mL | MIC [5]: 3.13 µg/mL | MIC [6]: 50 µg/mL | MIC ([7]; Table 2, sodium salt): > 100 µg/mL | MIC ([7]; Table 3, sodium salt): > 100 µg/mL | MIC [8]: 25 µg/mL | MIC [9]: 0.2 µg/mL | MIC [10]: 25 µg/mL | MIC [11]: 0.025 µg/mL | MIC [12]: 6.26 µg/mL | MIC [13]: 3.13 µg/mL | MIC [14]: 0.05 µg/mL | MIC [15]: 0.012 µg/mL | MIC [16]: 25 µg/mL | MIC [17]: 0.05 µg/mL | MIC [18]: 0.78 µg/mL | MIC [19]: > 100 µg/mL | MIC [20]: 1.56 µg/mL | MIC [21]: 12.5 µg/mL | MIC [22]: 50 µg/mL | MIC [23]: 25 µg/mL | MIC [24]: 0.78 µg/mL | MIC [25]: 0.025 µg/mL | MIC [26]: 12.5 µg/mL | MIC ([27]; E. cloacae 908RN, Table 3, sodium salt): > 100 µg/mL | MIC ([27]; E. colacae 908RN, Table 2, sodium salt): > 100 µg/mL | MIC [28]: 12.5 µg/mL | MIC [29]: 50 µg/mL

From patent US4966900A, “Cephalosporin β-lactam compound and medicinal composition” (priority 1986, dated 1990)
